pIC50: −log10 of the molar value.
What follows are compounds tested against T1, Recombinant human renin (Homo sapiens, UniProt P00797) (assay: Inhibitory activity against human renin (fluorogenic peptide substrate)). Settings: 37° C. for 1 hour, read-out: IC50.
T1 sequence (P00797 67-406): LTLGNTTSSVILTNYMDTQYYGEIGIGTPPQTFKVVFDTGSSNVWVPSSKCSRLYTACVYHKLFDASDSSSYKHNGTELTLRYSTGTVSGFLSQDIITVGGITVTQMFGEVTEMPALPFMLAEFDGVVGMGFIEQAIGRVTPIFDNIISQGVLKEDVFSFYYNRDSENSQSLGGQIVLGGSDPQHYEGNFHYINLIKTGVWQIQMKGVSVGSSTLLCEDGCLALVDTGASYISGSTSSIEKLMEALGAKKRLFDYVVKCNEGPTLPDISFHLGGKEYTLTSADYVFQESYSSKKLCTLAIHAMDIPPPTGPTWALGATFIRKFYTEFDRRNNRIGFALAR
Assay type: biochemical

pIC50	Structure (SMILES)
9.05	COCCCCc1cc([C@@H](C)N(C(=O)[C@H]2CNCCO2)C2CC2)cc(OC)n1 [Example 78]
9.22	COC(=O)NCCCn1cc([C@@H](C)N(C(=O)[C@H]2CNCCO2)C2CC2)c2ncccc21 [Example 43]
9.15	COC(=O)NCCCn1nc([C@@H](C)N(C(=O)[C@H]2CNCCO2)C2CC2)c2ccc(C(F)(F)F)nc21 [Example 72]
8.80	CCOC(=O)NCCCn1nc([C@@H](C)N(C(=O)[C@H]2CNCCO2)C2CC2)c2ccc(C)nc21 [Example 58]
8.68	COCCCCn1cc([C@@H](C)N(C(=O)[C@H]2CNCCO2)C2CC2)c2cnc(C)nc21 [Example 103]
8.59	COCCCc1nn(C)c2ccc([C@@H](C)N(C(=O)[C@H]3CNCCO3)C3CC3)cc12 [Example 15]
9.05	COC(=O)NCCCn1nc([C@@H](C)N(C(=O)[C@H]2CNCCO2)C2CC2)c2ccc(C3CC3)cc21 [Example 59]
8.77	COC(=O)NCCCn1cc([C@@H](C)N(C(=O)[C@H]2CNCCO2)C2CC2)c2nccnc21 [Example 84]
9.40	COC(=O)NCCCn1cc([C@@H](C)N(C(=O)[C@H]2CNCCO2)C2CC2)c2ncc(C)nc21 [Example 102]
8.32	COCCCc1cn(C)c2ncc([C@@H](C)N(C(=O)[C@H]3CNCCO3)C3CC3)cc12 [Example 47]
8.34	COC(=O)NCCCc1nc([C@@H](C)N(C(=O)[C@H]2CNCCO2)C2CC2)ccc1OC [Example 74]
9.10	COCc1ccc([C@@H](C)N(C(=O)[C@H]2CNCCO2)C2CC2)cc1CCCNC(=O)OC [Example 96]
8.09	COC(=O)NCCCc1cc([C@@H](C)N(C(=O)[C@H]2CNCCO2)C2CC2)cc(C)n1 [Example 97]
9.05	COCCCCc1cc([C@@H](C)N(C(=O)[C@H]2CNCCO2)C2CC2)cc(C(C)C)n1 [Example 110]
8.36	CC(=O)NCCn1nc(C)c2ccc([C@@H](C)N(C(=O)[C@H]3CNCCO3)C3CC3)cc21 [Example 8]

Same assay, conditions: 50% inhibitory concentration (IC50) against human renin, 37° C. for 1 hour

pIC50	Structure (SMILES)
9.00	COC(=O)NCCCc1c(F)c([C@@H](C)N(C(=O)[C@H]2CNCCO2)C2CC2)nn1-c1ccccc1 [Example 244]
9.40	COC(=O)NCC(F)Cn1nc([C@@H](C)N(C(=O)[C@H]2CNCCO2)C2CC2)cc1-c1ccccc1 (stereo partly shown) [Example 193]
8.48	COC(=O)NCCCc1sc([C@@H](C)N(C(=O)[C@H]2CNCCO2)C2CC2)cc1-c1cnc(N)nc1 [Example 432]
9.10	CCc1nc([C@@H](C)N(C(=O)[C@H]2CNCCO2)C2CC2)cc2c1c(F)cn2CCCOC [Example 155]
9.15	COC(=O)NCCCc1nc([C@@H](C)N(C(=O)[C@H]2CNCCO2)C2CC2)cn1-c1ccccc1 [Example 182]
8.64	COC[C@H]1CO[C@@H](C(=O)N(C2CC2)[C@@H](C)c2cc(OC(C)C)n(CCCNC(=O)OC)n2)CN1 [Example 331]
8.46	COC(=O)NCCCc1nc(OC)cc([C@@H](C)N(C(=O)[C@H]2CNCCO2)C2CC2)n1 [Example 298]
9.00	COC(=O)NCCCc1cc([C@@H](C)N(C(=O)[C@H]2CNCCO2)C2CC2)nc2ccc(C#N)cc12 [Example 146]
8.55	COC(=O)NCCCc1nc([C@@H](C)N(C(=O)[C@H]2CNCCO2)C2CC2)sc1-c1ccccc1C(=O)OC [Example 414]
9.40	COC(=O)NCCCn1nc([C@@H](C)N(C(=O)[C@H]2CNCCO2)C2CC2)c(C)c1-c1ncccc1F [Example 234]
9.40	COC(=O)NCCCn1cc([C@H](C)N(C(=O)[C@H]2CNC[C@@H](COCc3ccccc3)O2)C2CC2)nc1C1CCOCC1 [Example 339]
8.89	COC(=O)NCCCc1nc(OC)cc([C@@H](C)N(C(=O)[C@H]2CNC[C@@H](C)O2)C2CC2)n1 [Example 375]
8.74	COCCCCn1cc([C@@H](C)N(C(=O)[C@H]2CNCCO2)C2CC2)c2nccc(COC)c21 [Example 115]
9.30	COC(=O)NCCCc1cc([C@@H](C)N(C(=O)[C@H]2CNCCO2)C2CC2)sc1-c1ccccc1NS(=O)(=O)C(F)(F)F [Example 297]
8.85	COC(=O)NCCCc1cc([C@@H](C)N(C(=O)[C@H]2CNCCO2)C2CC2)cnc1-c1ccccc1 [Example 128]
9.10	COC(=O)NCCCc1cc([C@@H](C)N(C(=O)[C@H]2CNCCO2)C2CC2)sc1-c1cncnc1 [Example 242]
8.46	COC(=O)NCCCc1cc([C@H](C)N(C(=O)[C@H]2CNCCO2)C2CC2)sc1-c1ccnn1C [Example 427]
9.22	COC[C@@H]1CNC[C@H](C(=O)N(C2CC2)[C@H](C)c2cc(CCCNC(=O)OC)n(-c3ccccc3)n2)O1 [Example 285]
8.22	CCc1ncc([C@@H](C)N(C(=O)[C@H]2CNCCO2)C2CC2)cc1CCCCOC [Example 126]
9.52	COC(=O)NCCCn1cc([C@@H](C)N(C(=O)[C@H]2CN[C@@H](C)CO2)C2CC2)nc1-c1ccc(F)cc1 [Example 280]
8.96	COC[C@H]1CO[C@@H](C(=O)N(C2CC2)[C@@H](C)c2nn(CCCNC(=O)OC)c(C3CCOCC3)c2F)CN1 [Example 328]
9.10	CCc1cc([C@H](C)N(C(=O)[C@H]2CNC[C@@H](COC)O2)C2CC2)cc(CCCNC(=O)OC)n1 [Example 329]
9.30	COC(=O)NCCCc1cc([C@H](C)N(C(=O)[C@H]2CNC[C@@H](CF)O2)C2CC2)cc(OC)n1 [Example 314]
8.62	COC(=O)NCCCc1nc([C@@H](C)N(C(=O)[C@H]2CNCCO2)C2CC2)sc1-c1cccc(Cl)c1 [Example 377]
9.15	COC(=O)NCCCc1cc([C@@H](C)N(C(=O)[C@H]2CNCCO2)C2CC2)nn1-c1cccc(C(F)(F)F)c1 [Example 348]
9.52	COC(=O)NCCCn1cc([C@@H](C)N(C(=O)[C@H]2CNCCO2)C2CC2)nc1-c1ccccc1F [Example 168]

pIC50	Structure (SMILES)
8.72	COC(=O)NCCCc1cc(C(C)N(C(=O)[C@H]2CNC[C@@H](C)O2)C2CC2)nn1-c1ccccc1C(F)(F)F (stereo partly shown) [Example 350]
9.15	COCCOc1cc([C@@H](C)N(C(=O)[C@H]2CNC[C@@H](C)O2)C2CC2)cc(CCCNC(=O)OC)n1 [Example 366]
8.49	COC[C@@H]1CNC[C@H](C(=O)N(C2CC2)[C@H](C)c2cc(OC)nc(CCCNC(=O)OC)n2)O1 [Example 386]
8.80	COC[C@H]1CO[C@@H](C(=O)N(C2CC2)[C@H](C)c2cc(CCCNC(=O)OC)n(C3CCOCC3)n2)CN1 [Example 302]
9.00	COC(=O)NCCCc1cc([C@H](C)N(C(=O)[C@H]2CNCCO2)C2CC2)cnc1C(C)C [Example 315]
8.77	CCc1cc(CCCNC(=O)OC)cc([C@@H](C)N(C(=O)[C@H]2CNCCO2)C2CC2)n1 [Example 120]
9.40	COC(=O)NCCCc1cc([C@@H](C)N(C(=O)[C@H]2CNCCO2)C2CC2)sc1-c1ccccc1-c1cc(O)no1 [Example 281]
8.89	COCCCc1cn(C)c2cnc([C@@H](C)N(C(=O)[C@H]3CNCCO3)C3CC3)cc12 [Example 125]
9.10	COCCCCn1cc([C@@H](C)N(C(=O)[C@H]2CNCCO2)C2CC2)nc1-c1ccccc1 [Example 160]
9.30	COC(=O)NCCCc1cc([C@@H](C)N(C(=O)[C@H]2CNCCO2)C2CC2)nc2ccccc12 [Example 119]
9.30	COC(=O)NCCCc1cc([C@@H](C)N(C(=O)[C@H]2CNCCO2)C2CC2)nc2ccc(F)cc12 [Example 142]
9.30	COC(=O)NCCCc1cc([C@@H](C)N(C(=O)[C@H]2CNCCO2)C2CC2)nn1-c1ccccc1F [Example 211]
8.36	COC(=O)NCCCn1nc([C@@H](C)N(C(=O)[C@H]2CNCCO2)C2CC2)cc1C(C)(C)c1ccccc1 [Example 387]
9.30	COC(=O)NCCCc1cc([C@@H](C)N(C(=O)[C@H]2CNCCO2)C2CC2)sc1-c1ccccc1F [Example 229]
9.40	COC(=O)NCCCn1nc([C@@H](C)N(C(=O)[C@H]2CNCCO2)C2CC2)cc1-c1ncc(C)cc1F [Example 223]
9.40	COC(=O)NCCCn1cc([C@@H](C)N(C(=O)[C@H]2CNC[C@@H](C(F)(F)F)O2)C2CC2)nc1-c1ccccc1 [Example 219]
8.46	COC[C@@H]1CNC[C@H](C(=O)N(C2CC2)[C@H](C)c2nc(CCCNC(=O)OC)c(-c3cccc(Cl)c3)s2)O1 [Example 378]
9.40	COC(=O)NCCCc1cc([C@@H](C)N(C(=O)[C@H]2CNCCO2)C2CC2)cnc1C1CCCC1 [Example 137]
8.27	COC(=O)NCCCc1cc([C@@H](C)N(C(=O)[C@H]2CNCCO2)C2CC2)nc(C2CC2)n1 [Example 374]
9.52	COC(=O)NCCCc1cc([C@@H](C)N(C(=O)[C@H]2CNCCO2)C2CC2)nn1C(C)(C)C [Example 213]
8.82	COC[C@H]1CO[C@@H](C(=O)N(C2CC2)[C@H](C)c2cn(CCCNC(=O)OC)c3ncccc23)CN1 [Example 295]
9.40	COC(=O)NCCCn1cc([C@@H](C)N(C(=O)[C@H]2CNCCO2)C2CC2)nc1-c1ccc(Cl)cc1 [Example 170]
8.92	CNC(=O)[C@@H]1CNC[C@H](C(=O)N(C2CC2)[C@H](C)c2nn(CCCNC(=O)OC)c3nc(C)ccc23)O1 [Example 259]
8.55	C[C@H](c1cn(Cc2cccc(F)c2)c(-c2ccccc2)n1)N(C(=O)[C@H]1CNCCO1)C1CC1 [Example 214]
9.52	COC(=O)NCCCn1nc([C@@H](C)N(C(=O)[C@H]2CNC[C@@H](C)O2)C2CC2)c2ccc(C)nc21 [Example 250]
8.92	COC(=O)NCCCn1nc([C@@H](C)N(C(=O)[C@H]2CN[C@@H](CC(F)F)CO2)C2CC2)c2ccc(C)nc21 [Example 305]

Source: patent US9556159B2, “Renin inhibitor” (MITSUBISHI TANABE PHARMA CORPORATION, priority 2012, dated 2017)
